Results as given in the Kinase Knowledgebase extract (Sharma et al. 2016).

Columns and labels:
PIK3CD (Human) = PIK3CD (Human) (UniProt O00329); assay: Assessment of PIK3CD Kinase Activity
PIK3CA (human) = PIK3CA (human) (UniProt P42336); assay: Assessment of PIK3CA Kinase Activity
PIK3CB (Human) = PIK3CB (Human) (UniProt P42338); assay: Assessment of PIK3CB Kinase Activity
Sequence of PIK3CB (Human) (P42338 whole entry, looked up): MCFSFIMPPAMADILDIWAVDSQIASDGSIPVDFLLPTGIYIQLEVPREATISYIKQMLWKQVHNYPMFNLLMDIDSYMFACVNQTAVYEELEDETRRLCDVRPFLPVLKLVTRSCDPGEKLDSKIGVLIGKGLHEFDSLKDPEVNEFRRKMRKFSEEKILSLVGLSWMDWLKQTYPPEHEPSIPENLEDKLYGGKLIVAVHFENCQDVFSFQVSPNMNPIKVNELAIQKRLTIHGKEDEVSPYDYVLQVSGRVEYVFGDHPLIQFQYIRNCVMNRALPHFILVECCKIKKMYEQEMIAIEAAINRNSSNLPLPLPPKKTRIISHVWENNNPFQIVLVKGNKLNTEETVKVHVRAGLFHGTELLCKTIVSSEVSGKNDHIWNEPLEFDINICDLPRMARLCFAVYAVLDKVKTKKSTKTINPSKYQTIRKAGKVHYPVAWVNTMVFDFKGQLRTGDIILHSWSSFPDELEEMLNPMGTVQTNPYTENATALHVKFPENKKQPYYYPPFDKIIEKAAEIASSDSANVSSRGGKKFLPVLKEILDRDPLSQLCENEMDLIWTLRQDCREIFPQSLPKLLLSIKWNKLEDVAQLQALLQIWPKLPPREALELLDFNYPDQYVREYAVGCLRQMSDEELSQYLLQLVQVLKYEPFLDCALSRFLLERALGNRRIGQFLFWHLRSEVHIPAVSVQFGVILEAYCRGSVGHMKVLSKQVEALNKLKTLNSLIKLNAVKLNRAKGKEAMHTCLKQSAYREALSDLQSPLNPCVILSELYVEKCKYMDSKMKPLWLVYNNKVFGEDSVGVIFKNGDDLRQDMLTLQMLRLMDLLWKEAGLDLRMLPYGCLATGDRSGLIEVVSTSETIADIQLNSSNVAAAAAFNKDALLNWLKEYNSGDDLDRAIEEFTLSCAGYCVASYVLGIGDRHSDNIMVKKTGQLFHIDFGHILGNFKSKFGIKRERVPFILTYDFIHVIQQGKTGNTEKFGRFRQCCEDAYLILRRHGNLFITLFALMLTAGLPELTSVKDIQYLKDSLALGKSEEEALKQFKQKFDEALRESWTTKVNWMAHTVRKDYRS

Sequence of PIK3CD (Human) (O00329 whole entry, looked up): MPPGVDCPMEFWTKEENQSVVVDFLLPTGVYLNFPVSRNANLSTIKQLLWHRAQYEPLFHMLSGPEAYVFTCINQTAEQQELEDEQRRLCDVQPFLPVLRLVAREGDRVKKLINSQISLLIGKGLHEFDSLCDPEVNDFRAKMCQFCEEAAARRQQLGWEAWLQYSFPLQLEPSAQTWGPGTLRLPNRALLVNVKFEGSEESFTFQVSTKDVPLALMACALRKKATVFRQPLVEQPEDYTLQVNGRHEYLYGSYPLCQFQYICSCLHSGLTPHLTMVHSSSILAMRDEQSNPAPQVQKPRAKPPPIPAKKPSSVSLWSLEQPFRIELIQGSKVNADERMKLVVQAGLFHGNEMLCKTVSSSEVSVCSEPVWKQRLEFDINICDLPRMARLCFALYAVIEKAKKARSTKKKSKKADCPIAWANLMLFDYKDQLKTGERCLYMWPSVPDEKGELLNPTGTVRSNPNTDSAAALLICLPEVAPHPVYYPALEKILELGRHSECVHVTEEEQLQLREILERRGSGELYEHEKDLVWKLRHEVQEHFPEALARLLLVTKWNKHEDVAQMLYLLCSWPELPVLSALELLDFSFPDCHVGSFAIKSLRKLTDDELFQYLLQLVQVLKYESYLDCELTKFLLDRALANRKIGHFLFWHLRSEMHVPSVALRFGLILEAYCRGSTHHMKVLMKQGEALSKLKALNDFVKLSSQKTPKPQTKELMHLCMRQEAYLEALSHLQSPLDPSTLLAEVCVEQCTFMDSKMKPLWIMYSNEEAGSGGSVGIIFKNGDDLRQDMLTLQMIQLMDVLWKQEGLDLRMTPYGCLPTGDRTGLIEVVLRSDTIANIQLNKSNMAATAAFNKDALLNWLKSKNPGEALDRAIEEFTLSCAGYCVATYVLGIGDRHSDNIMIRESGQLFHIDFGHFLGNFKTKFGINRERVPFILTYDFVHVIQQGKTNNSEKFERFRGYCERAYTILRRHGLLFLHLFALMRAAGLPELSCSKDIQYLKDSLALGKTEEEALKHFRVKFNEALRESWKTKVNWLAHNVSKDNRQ
Sequence of PIK3CA (human) (P42336 whole entry, looked up): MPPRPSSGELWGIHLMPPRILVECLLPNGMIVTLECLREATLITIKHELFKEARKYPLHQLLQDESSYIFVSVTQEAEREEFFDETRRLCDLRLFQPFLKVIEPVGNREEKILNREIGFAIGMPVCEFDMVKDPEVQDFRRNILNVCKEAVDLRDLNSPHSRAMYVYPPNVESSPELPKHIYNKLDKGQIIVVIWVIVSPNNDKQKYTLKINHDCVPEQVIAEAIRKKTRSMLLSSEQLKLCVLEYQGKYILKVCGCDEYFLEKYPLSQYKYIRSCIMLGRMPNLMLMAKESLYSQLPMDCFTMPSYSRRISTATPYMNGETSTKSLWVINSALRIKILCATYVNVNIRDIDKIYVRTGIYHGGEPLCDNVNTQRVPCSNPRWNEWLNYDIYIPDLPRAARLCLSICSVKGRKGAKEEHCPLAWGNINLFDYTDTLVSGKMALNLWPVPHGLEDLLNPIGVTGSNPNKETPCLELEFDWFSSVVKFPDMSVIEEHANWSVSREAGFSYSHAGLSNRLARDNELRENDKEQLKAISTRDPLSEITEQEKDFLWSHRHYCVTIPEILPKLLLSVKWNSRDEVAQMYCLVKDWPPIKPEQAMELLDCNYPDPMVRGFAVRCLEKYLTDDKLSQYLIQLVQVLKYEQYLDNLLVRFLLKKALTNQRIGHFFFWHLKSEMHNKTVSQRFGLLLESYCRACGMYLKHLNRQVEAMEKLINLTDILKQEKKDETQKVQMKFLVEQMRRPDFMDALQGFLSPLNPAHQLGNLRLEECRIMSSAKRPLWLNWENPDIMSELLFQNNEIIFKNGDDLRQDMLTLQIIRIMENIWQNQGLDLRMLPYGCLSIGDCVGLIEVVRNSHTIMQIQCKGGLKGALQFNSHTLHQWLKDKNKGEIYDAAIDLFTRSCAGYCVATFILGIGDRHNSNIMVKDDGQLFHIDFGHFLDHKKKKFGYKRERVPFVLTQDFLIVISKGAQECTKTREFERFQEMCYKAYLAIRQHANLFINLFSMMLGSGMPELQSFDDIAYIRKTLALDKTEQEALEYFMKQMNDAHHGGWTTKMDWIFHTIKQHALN

| Structure (SMILES) | IC50 (PIK3CD (Human)) | IC50 (PIK3CA (human)) | IC50 (PIK3CB (Human)) |
| --- | --- | --- | --- |
| COc1cccc2c1nc(C(F)F)n2-c1nc(-c2ccc(N(C)S(=O)(=O)CCN(C)C)cc2)nc(N2CCOCC2)n1 | 100 to 1000 nM | 100 to 1000 nM |  |
| COc1cccc2c1nc(C(F)F)n2-c1nc(OC2CCN(S(=O)(=O)CCN3CCOCC3)CC2)nc(N2CCOCC2)n1 | < 100 nM | < 100 nM |  |
| CN(C)CCCOc1cccc2c1nc(C(F)F)n2-c1nc(OC2CCN(S(C)(=O)=O)CC2)nc(N2CCOCC2)n1 | 100 to 1000 nM | 100 to 1000 nM |  |
| COc1cccc2c1nc(C(F)F)n2-c1nc(-c2ccc(S(=O)(=O)N3CCN(C)CC3)cc2)nc(N2CCOCC2)n1 |  | 100 to 1000 nM |  |
| COc1cccc2c1nc(C(F)F)n2-c1nc(N2CCOCC2)nc(N(CCCN(C)C)C2CCN(S(=O)(=O)CCl)CC2)n1 | < 100 nM | 100 to 1000 nM |  |

The remaining lines, values ahead:

| IC50 (PIK3CD (Human)) | IC50 (PIK3CA (human)) | IC50 (PIK3CB (Human)) | Structure (SMILES) |
| --- | --- | --- | --- |
| 100 to 1000 nM | 100 to 1000 nM |  | CN(C)CCS(=O)(=O)N1CCN(c2nc(N3CCOCC3)nc(-n3c(C(F)F)nc4ccccc43)n2)CC1 |
| 100 to 1000 nM | 100 to 1000 nM |  | COc1cccc2c1nc(C(F)F)n2-c1nc(N2CCOCC2)nc(N2CCC[C@H](N(CCCN(C)C)S(C)(=O)=O)C2)n1 |
| 100 to 1000 nM | < 100 nM | 100 to 1000 nM | COc1cccc2c1nc(C(F)F)n2-c1nc(N2CCOCC2)c2cnn(C3CCN(S(=O)(=O)CCN(C)C)CC3)c2n1 |
| < 100 nM | < 100 nM | 100 to 1000 nM | COc1cc(N)cc2c1nc(C(F)F)n2-c1nc(N2CCOCC2)nc(N2CCN(S(=O)(=O)CCN(C)C)CC2)n1 |
